Usually IC50 stands for the point on the concentration scale where inhibition reaches its midpoint. Low values mean inhibition by little substance, high ones a need for much substance.

These results are taken from patent US6124310A, “Enediyne compounds” (priority 1995, dated 2000).

In assay [1] the test system is UV4 cells. Nature of the assay: Growth inhibition of UV4 cells, 18 hours in 96-well plates under aerobic conditions, without or with purified E. coli nitroreductase and NADH. It is filed as cell-based. The settings on record: for IC50: Cricetulus griseus, UV4, 18 h, 18 hours, aerobic. How it is done:
The compound prepared in Example 1 was activated by the aerobic nitroreductase from E. coli, by being incubated with UV4 cells for 18 hours in 96-well plates under aerobic conditions.

For assay [2], the system named is tumour cell cultures. Particulars: naturally-occurring enediyne antibiotics, literature; cited from earlier work.

For the molecule `O=C(OCc1ccc([N+](=O)[O-])cc1)N1c2ccccc2C23OC24CCCC3C#C/C=C\C#CC14` (racemic) [compound 2, (6R,6aR,10R,10aS,14Z)-(±)-(4-nitrophenyl)methyl 7,8,9,10-tetrahydro-6a,10a-epoxy-6, [3]-hexene[1,5]diynophenanthridine-5(6H)-carboxylate], the IC50 in assay [1] (compound alone) is 18.1 µM; in assay [1] (together with purified E. coli nitroreductase enzyme (1 μg/mL) and NADH (1 mM, as cofactor)) it was 0.19 µM. The “fold activation by the enzyme” value in assay [1] (ratio of IC50 without / with E. coli nitroreductase + NADH, 1080 min) came out at 115 fold. As to `O=C(Oc1ccccc1)N1c2ccccc2C23OC24CCCC3C#C/C=C\C#CC14` (stereo not shown) [formula A'], the “showed any activation by the enzyme” value in assay [1] (E. coli nitroreductase, in words: 'neither ... showed any activation') is on record as “neither”.

Turning to calicheamicin, in assay [2], the “IC50 values for inhibition of growth of tumour cell cultures” value (shortened to “IC50 values for inhibition”) was “low pM range”. On to dynemicin, for which the “IC50 values for inhibition” value in assay [2] is given as “low pM range”.

Regarding esperamicin, the “IC50 values for inhibition” value in assay [2] is listed as “low pM range”.
